Test results: publication PMC6811774, “Potent, selective, and subunit‐dependent activation of TRPC5 channels by a xanthine derivative” (British Journal of Pharmacology, 2019)

Assays:
TRPC5–C1 channels = TRPC5–C1 channels (Homo sapiens, UniProt P48995+Q9UL62); experiment: [Ca2+]i measurement in (Tet+) HEK T-REx cells expressing hTRPC5-C1 concatemer; type: cell-based
Method: HEK T‐REx™ cell line was transfected with TRPC5‐SYFP2 or TRPC4‐SYFP2 using FuGENE® HD transfection reagent. After 48 hr, cells were put under antibiotic selection using 400 μg·ml^−1 zeocin and 10 μg·ml^−1 blasticidin S (Invivogen, San Diego, California, USA). Medium changes were carried out regularly to remove dead cells. HEK T‐REx cells expressing tetracycline‐inducible human TRPC5, TRPC4–C1, and TRPC5–C1 were created as described previously (Akbulut et al., 2015; Ludlow et al., 2017; Rubaiy, Ludlow, Henrot, et al., 2017). TRPC5–C1 and TRPC4–C1 concatemers allow expression of functional channels with defined 2:2 stoichiometry that display ion permeability and current–voltage relationships distinct from those of homomeric TRPC4:C4 or TRPC5:C5 channels and consistent with those obtained upon co‐expression of TRPC1 with TRPC4 or TRPC5 (Ludlow et al., 2017; Rubaiy, Ludlow, Bon, & Beech, 2017; Rubaiy, Ludlow, Henrot, et al., 2017). Cells were cultured in DMEM‐F12 GlutaMAX (Invitrogen, Paisley, UK) containing 10% FBS (Sigma‐Aldrich, Gillingham, UK), with the addition of blasticidin (10 μg·ml^−1) and zeocin (400 μg·ml^−1) to maintain the stable incorporation of the tetracycline repressor and the channel of interest, respectively. Expression of proteins was induced by the addition of tetracycline (1 μg·ml^−1, 24 hr). Cells were maintained in a humidified incubator with 5% CO2 at 37°C. HEK 293 cells stably expressing tetracycline‐regulated human http://www.guidetopharmacology.org/GRAC/ObjectDisplayForward?objectId=494 were prepared similarly and have also been described previously (McHugh, Flemming, Xu, Perraud, & Beech, 2003). For experiments using transient co‐expression of TRPC1 and TRPC5, HEK cells at 40–60% confluency were transfected with pIRES2‐AcGFP1 and pIRES2‐DsRed‐Express2 plasmids containing human TRPC1 and TRPC5, respectively, using Lipofectamine 3000 (ThermoFisher Scientific, Yokohama, Japan). All experiments using transient expression were performed within 48 hr after transfection. […]

TRPM2 = biological target: T1, TRPM2 (Homo sapiens, UniProt O94759); experiment: [Ca2+]i selectivity assay, (Tet+) HEK T-REx cells expressing TRPM2, H2O2 activation; type: cell-based; details: 300 nM AM237; 1 mM H2O2
T1 construct: expressed in transfected cells

[1] = tested on: HEK T-REx (Tet+) cells expressing TRPC5; experiment: LIVE/DEAD cell viability assay; type: cell-based, human; details: AM237 up to 1 μM, 30 min
Method: Cell viability was assayed using the LIVE/DEAD® cell viability kit (Molecular Probes™, Eugene, Oregon, USA). HEK T‐REx expressing tetracycline‐inducible hTRPC5 were plated onto black, clear bottom poly‐D‐lysine‐coated 96‐well plates, at 25,000 cells per well, and TRPC5 protein expression was induced with 1 μg·ml^−1 tetracycline. Cells were cultured for 24 hr in DMEM‐F12 GlutaMAX (Invitrogen, Paisley, UK) containing 10% FBS, with the addition of blasticidin (10 μg·ml^−1) and zeocin (400 μg·ml^−1). For wells containing methanol‐treated positive control cells, medium was removed and 70% methanol/distilled water (100 μl) was added and cells returned to the incubator for 30 min. After incubation, the solution in each well was replaced with recording buffer (SBS with 0.01% pluronic acid and 0.05% DMSO; 100 μl). The LIVE/DEAD® (Molecular Probes™, Eugene, Oregon, US) cell viability kit was used to stain the cells. Calcein AM (5 μl) and ethidium homodimer‐1 (20 μl) were added to SBS with […] (10 ml). Compound and vehicle dilutions were carried out directly in LIVE/DEAD® solution and 100 μl of each was added to the recording buffer in each corresponding well. Cells were incubated for 30 min and immediately imaged. Imaging and analysis was carried out on the IncuCyte® ZOOM (Essen Bioscience, Welwyn Garden City, UK).

Sequence of TRPC5–C1 channels (Q9UL62 whole entry): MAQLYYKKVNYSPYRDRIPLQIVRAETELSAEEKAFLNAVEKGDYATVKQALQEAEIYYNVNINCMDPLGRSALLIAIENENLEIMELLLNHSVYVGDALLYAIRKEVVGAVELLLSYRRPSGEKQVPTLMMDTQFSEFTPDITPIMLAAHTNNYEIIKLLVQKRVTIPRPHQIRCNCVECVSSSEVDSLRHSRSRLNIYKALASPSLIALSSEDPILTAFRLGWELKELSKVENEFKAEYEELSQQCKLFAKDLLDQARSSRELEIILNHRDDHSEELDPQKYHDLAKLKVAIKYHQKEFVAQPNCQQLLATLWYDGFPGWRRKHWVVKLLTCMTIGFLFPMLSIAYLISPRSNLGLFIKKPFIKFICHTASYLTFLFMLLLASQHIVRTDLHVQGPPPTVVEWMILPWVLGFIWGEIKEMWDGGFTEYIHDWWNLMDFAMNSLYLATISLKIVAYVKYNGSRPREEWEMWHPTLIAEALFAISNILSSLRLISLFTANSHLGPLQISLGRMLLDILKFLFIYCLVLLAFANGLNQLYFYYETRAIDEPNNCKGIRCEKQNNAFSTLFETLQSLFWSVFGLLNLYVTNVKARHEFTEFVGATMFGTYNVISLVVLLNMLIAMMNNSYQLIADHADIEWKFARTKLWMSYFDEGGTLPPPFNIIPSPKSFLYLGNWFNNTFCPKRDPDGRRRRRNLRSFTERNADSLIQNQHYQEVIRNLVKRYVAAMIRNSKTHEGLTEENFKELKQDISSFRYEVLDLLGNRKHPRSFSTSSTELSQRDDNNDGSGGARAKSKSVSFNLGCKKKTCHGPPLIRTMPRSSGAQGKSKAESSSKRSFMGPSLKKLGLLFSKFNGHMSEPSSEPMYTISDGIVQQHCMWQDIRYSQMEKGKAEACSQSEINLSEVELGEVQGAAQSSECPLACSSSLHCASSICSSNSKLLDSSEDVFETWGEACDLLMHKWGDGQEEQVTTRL
Sequence of TRPC5–C1 channels (P48995 whole entry): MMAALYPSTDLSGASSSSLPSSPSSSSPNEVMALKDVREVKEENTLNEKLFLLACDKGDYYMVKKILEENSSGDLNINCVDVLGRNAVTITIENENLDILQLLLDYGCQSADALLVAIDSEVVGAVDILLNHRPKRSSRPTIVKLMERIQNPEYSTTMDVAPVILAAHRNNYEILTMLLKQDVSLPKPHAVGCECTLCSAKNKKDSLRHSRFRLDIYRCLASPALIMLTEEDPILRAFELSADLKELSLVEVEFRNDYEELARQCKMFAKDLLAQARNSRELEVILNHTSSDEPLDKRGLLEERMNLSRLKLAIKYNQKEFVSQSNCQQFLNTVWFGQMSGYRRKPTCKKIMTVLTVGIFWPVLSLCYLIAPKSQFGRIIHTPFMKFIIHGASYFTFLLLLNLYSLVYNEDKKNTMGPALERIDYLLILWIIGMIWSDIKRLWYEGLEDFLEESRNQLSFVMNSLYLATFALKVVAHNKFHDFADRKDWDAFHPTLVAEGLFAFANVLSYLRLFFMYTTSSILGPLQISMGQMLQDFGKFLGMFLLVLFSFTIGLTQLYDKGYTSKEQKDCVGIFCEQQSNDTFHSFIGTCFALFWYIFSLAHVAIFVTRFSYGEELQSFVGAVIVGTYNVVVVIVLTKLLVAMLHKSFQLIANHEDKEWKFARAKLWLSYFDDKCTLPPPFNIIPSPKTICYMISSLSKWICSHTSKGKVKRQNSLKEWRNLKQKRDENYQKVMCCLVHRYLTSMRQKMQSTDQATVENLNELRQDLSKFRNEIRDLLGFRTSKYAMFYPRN
T1 sequence (O94759 whole entry): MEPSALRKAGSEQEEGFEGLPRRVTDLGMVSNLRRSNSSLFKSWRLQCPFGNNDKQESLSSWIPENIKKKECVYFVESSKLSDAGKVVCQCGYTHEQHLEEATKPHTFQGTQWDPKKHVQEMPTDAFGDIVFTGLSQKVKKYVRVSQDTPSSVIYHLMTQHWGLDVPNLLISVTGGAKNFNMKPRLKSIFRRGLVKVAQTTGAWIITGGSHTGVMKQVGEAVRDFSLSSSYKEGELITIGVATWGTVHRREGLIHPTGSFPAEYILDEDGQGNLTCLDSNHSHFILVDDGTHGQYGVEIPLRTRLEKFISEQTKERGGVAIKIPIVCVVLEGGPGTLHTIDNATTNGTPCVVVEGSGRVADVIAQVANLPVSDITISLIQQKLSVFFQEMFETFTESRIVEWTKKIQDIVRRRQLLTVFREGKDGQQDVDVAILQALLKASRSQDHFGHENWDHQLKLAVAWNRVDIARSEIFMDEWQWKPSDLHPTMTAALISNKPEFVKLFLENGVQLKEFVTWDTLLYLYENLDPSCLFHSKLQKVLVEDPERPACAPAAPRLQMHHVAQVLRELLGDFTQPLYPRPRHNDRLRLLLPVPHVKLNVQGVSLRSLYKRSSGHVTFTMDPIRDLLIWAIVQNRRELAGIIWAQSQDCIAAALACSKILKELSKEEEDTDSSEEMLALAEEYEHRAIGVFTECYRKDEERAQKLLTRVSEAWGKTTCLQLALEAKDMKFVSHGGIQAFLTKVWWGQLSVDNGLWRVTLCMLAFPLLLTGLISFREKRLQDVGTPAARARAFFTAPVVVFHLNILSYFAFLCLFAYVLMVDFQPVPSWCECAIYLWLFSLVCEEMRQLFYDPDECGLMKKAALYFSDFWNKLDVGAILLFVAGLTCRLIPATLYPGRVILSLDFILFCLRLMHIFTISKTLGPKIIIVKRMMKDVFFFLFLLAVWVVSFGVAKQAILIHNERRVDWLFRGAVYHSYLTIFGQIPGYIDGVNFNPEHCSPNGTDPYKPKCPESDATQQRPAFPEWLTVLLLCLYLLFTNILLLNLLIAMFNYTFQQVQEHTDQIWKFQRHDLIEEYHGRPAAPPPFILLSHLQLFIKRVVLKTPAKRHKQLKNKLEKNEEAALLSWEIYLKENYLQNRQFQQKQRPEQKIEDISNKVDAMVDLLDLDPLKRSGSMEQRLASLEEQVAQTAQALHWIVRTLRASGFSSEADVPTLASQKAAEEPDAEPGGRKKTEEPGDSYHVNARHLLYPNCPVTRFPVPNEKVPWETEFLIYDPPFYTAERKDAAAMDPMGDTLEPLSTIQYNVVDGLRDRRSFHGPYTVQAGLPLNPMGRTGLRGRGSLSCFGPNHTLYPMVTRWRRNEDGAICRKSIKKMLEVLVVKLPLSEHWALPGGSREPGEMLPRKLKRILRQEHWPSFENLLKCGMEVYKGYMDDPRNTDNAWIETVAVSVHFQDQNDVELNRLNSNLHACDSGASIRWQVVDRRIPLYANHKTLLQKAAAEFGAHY

SMILES: Cn1c(=O)n(CCCO)c(=O)c2c1nc(Oc1ccc(Cl)c(OC(F)(F)F)c1)n2Cc1ccc(Cl)cc1 [AM237]
- Hill slope, inhibition of EA response (TRPC5–C1 channels): -1.2
- Effect of pre-incubation on basal [Ca2+]i (TRPC5–C1 channels; 0.1–100 nM AM237): did not raise
- Activation upon acute administration ([Ca2+]i) (TRPC5–C1 channels; 3-300 nM AM237): lack of activation
- Activation or inhibition of TRPM2 (TRPM2): no activation or inhibition
- Cell viability (LIVE/DEAD) [1]: did not lead to reduced
